Results as given in paper PMC5554537 (Frontiers in Pharmacology, 2017).

What was measured:
in vivo = details: NIH-III, mouse, in vivo, ip
[1] = Stability in mouse liver homogenates (QC samples); type: physicochemical
Excerpt: (§1) using octa-deuterated internal standards of SN30000, M13 and M14 synthesised as previously reported (Wang et al., 2012). Intra- and inter-day precision (expressed as relative standard deviation (RSD) and accuracy (expressed as percentage of the nominal value) were deter mined by analy sis of replicates (n=6) of low and high quality control (QC) samples on three different days. The lower limit of quantitation (LLOQ) was defined as the lowest concentration providing RSD and accuracy < 20%. Recovery from plasma and liver ho mogenates was tested at the three QC levels. The recoveries were evaluated by comparing extracted samples with blank extracted solutions spiked with analytes of the same amount.
(§2) Matrix effects, defined as the change in response due to the presence of other substances in the samples, were evaluated by comparing the analytes diluted into the blank plasma or liver extracted solution with that of the same stock solutions diluted in water. Three different concentration levels (low, medium and high QC) were evaluated by analysing three samples at each level. Accuracy , precision, recovery and matrix effects were all acceptable over the concentration ranges evaluated for plas ma (Supplementary Table 1) and for liver homogenates (Supplementary Table 2).
(§3) Stability of the analytes in mouse plasma (Supplementary Table 3) or liver homogenate (Supplementary Table 4) was confirmed during holding of QC samples on ice for up to 2 h under nor mal laboratory lighting, although there was a trend towards loss of SN30000 in plasma samples held in clear microcentrifuge tubes which may reflect the known photosensitivity of the compound (Gu et al., 2014). This loss was reduced by use of red microcentrifuge tubes, and eliminated by black tubes. Stability in both matrices was also confir med for one month storage at -80°C and for three freeze-thaw cycles, while MeOH-deproteinised samples w ere stable for 12 h at 4°C in the autosampler (Supplementary Tables

[2] = Compartmental plasma PK model; type: in vivo; set-up: Absorption rate constant Ka: unit not given here
Excerpt: This model, shown schematically in Figure 9, is based on total (free + bound) plasma concentrations; the major metabolites (M14, M13, and M18) are explicit and clearance of SN30000 occurs only by reduction to M14. The i.p. bioavailability of SN30000 was modeled with an additional term for loss from the peritoneal compartment (kloss).

NIH-III mice = experiment: Core body (rectal) temperature and acute clinical signs after dosing; type: in vivo
[3] = Stability in mouse plasma (QC samples); type: physicochemical
Excerpt: as §1, §2, §3

[4] = liver homogenate deproteinised in 3 vol MeOH, 12 h autosampler at 4°C, nominal SN30000 0.5, M14 0.25, M13 0.1 µM
[5] = liver homogenate deproteinised in 3 vol MeOH, 12 h autosampler at 4°C, nominal SN30000 5, M14 2.5, M13 1 µM
[6] = liver homogenate deproteinised in 3 vol MeOH, 12 h autosampler at 4°C, nominal SN30000 50, M14 25, M13 10 µM
[7] = liver homogenate, 1 month at -80°C, nominal SN30000 0.5, M14 0.25, M13 0.1 µM
[8] = liver homogenate, 1 month at -80°C, nominal SN30000 5, M14 2.5, M13 1 µM
[9] = liver homogenate, 1 month at -80°C, nominal SN30000 50, M14 25, M13 10 µM
[10] = liver homogenate, 1h on ice, clear tubes, nominal SN30000 0.5, M14 0.25, M13 0.1 µM
[11] = liver homogenate, 1h on ice, clear tubes, nominal SN30000 5, M14 2.5, M13 1 µM
[12] = liver homogenate, 1h on ice, clear tubes, nominal SN30000 50, M14 25, M13 10 µM
[13] = liver homogenate, 2h on ice, nominal SN30000 0.5, M14 0.25, M13 0.1 µM
[14] = liver homogenate, 2h on ice, nominal SN30000 5, M14 2.5, M13 1 µM
[15] = liver homogenate, 2h on ice, nominal SN30000 50, M14 25, M13 10 µM
[16] = liver homogenate, three freeze-thaw cycles, nominal SN30000 0.5, M14 0.25, M13 0.1 µM
[17] = liver homogenate, three freeze-thaw cycles, nominal SN30000 5, M14 2.5, M13 1 µM
[18] = liver homogenate, three freeze-thaw cycles, nominal SN30000 50, M14 25, M13 10 µM
[19] = plasma deproteinised in 3 vol MeOH, 12 h autosampler at 4°C, nominal SN30000 0.5, M14 0.25, M13 0.1 µM
[20] = plasma deproteinised in 3 vol MeOH, 12 h autosampler at 4°C, nominal SN30000 5, M14 2.5, M13 1 µM
[21] = plasma deproteinised in 3 vol MeOH, 12 h autosampler at 4°C, nominal SN30000 50, M14 25, M13 10 µM
[22] = plasma, 1 month at -80°C, nominal SN30000 5, M14 2.5, M13 1 µM
[23] = plasma, 1 month at -80°C, nominal SN30000 50, M14 25, M13 10 µM
[24] = plasma, 1 h on ice, black vial, nominal SN30000 0.5, M14 0.25, M13 0.1 µM
[25] = plasma, 1 h on ice, black vial, nominal SN30000 5, M14 2.5, M13 1 µM
[26] = plasma, 1 h on ice, black vial, nominal SN30000 50, M14 25, M13 10 µM
[27] = plasma, 1 h on ice, clear vial, nominal SN30000 0.5, M14 0.25, M13 0.1 µM
[28] = plasma, 1 h on ice, clear vial, nominal SN30000 5, M14 2.5, M13 1 µM
[29] = plasma, 1 h on ice, clear vial, nominal SN30000 50, M14 25, M13 10 µM
[30] = plasma, 1 h on ice, red vial, nominal SN30000 0.5, M14 0.25, M13 0.1 µM
[31] = plasma, 1 h on ice, red vial, nominal SN30000 5, M14 2.5, M13 1 µM
[32] = plasma, 1 h on ice, red vial, nominal SN30000 50, M14 25, M13 10 µM
[33] = plasma, 2 h on ice, black vial, nominal SN30000 0.5, M14 0.25, M13 0.1 µM
[34] = plasma, 2 h on ice, black vial, nominal SN30000 5, M14 2.5, M13 1 µM
[35] = plasma, 2 h on ice, black vial, nominal SN30000 50, M14 25, M13 10 µM
[36] = plasma, 2 h on ice, clear vial, nominal SN30000 0.5, M14 0.25, M13 0.1 µM
[37] = plasma, 2 h on ice, clear vial, nominal SN30000 5, M14 2.5, M13 1 µM
[38] = plasma, 2 h on ice, clear vial, nominal SN30000 50, M14 25, M13 10 µM
[39] = plasma, 2 h on ice, red vial, nominal SN30000 0.5, M14 0.25, M13 0.1 µM
[40] = plasma, 2 h on ice, red vial, nominal SN30000 5, M14 2.5, M13 1 µM
[41] = plasma, 2 h on ice, red vial, nominal SN30000 50, M14 25, M13 10 µM
[42] = plasma, three freeze-thaw cycles, nominal SN30000 0.5, M14 0.25, M13 0.1 µM
[43] = plasma, three freeze-thaw cycles, nominal SN30000 5, M14 2.5, M13 1 µM
[44] = plasma, three freeze-thaw cycles, nominal SN30000 50, M14 25, M13 10 µM

## [O-][n+]1nc(CCCN2CCOCC2)[n+]([O-])c2cc3c(cc21)CCC3 [SN30000, 3-(3-Morpholinopropyl)-7,8-dihydro-6H-indeno[5,6-e][1,2,4]triazine 1,4-dioxide]
In vivo
  bioavailability: ~30%
In vivo; 1.86 mg/kg
  AUC: 0.17 µM·h
  Cmax: 0.59 µM
  half-life: 20.8 min
In vivo; 18.6 mg/kg
  AUC: 2.1 µM·h
  Cmax: 6.8 µM
  half-life: 25 min
In vivo; 78 mg/kg
  bioavailability: ~70%
In vivo; 78.3 mg/kg
  AUC: 31.5 µM·h
  Cmax: 60.8 µM
  half-life: 16.1 min
In vivo; 92.8 mg/kg
  AUC: 49.2 µM·h
  Cmax: 77.9 µM
  half-life: 19.7 min
In vivo; 186 mg/kg
  AUC: 155 µM·h
  Cmax: 229 µM
  half-life: 42.5 min
[1]; [4]
  Bias: 3.36%
  Measured conc: 0.52 µM
[1]; [5]
  Bias: 2.86%
  Measured conc: 5.14 µM
[1]; [6]
  Bias: 6.75%
  Measured conc: 53.37 µM
[1]; [7]
  Bias: 1.98%
  Measured conc: 0.52 µM
[1]; [8]
  Bias: 4.40%
  Measured conc: 4.77 µM
[1]; [9]
  Bias: 4.71%
  Measured conc: 47.06 µM
[1]; [10]
  Bias: 2.46%
  Measured conc: 0.51 µM
[1]; [11]
  Bias: 4.72%
  Measured conc: 5.24 µM
[1]; [12]
  Bias: 6.87%
  Measured conc: 53.43 µM
[1]; [13]
  Bias: -3.26%
  Measured conc: 0.48 µM
[1]; [14]
  Bias: 2.72%
  Measured conc: 5.14 µM
[1]; [15]
  Bias: 1.20%
  Measured conc: 50.60 µM
[1]; [16]
  Bias: -10.74%
  Measured conc: 0.45 µM
[1]; [17]
  Bias: -8.29%
  Measured conc: 4.59 µM
[1]; [18]
  Bias: 4.78%
  Measured conc: 52.39 µM
[2]; 1-Oxide and Nor-oxide values fixed
  Central compartment volume V1: 1.95 L/kg
[2]; (1+ΔT)^-N
  Temperature effect (N) on Kloss for i.p. SN30000: 2.80
[2]; NIH-III, mouse, in vivo
  Intercompartmental clearance Clic: 18.7 mL/min/kg
  Peripheral compartment volume V2: 0.64 L/kg
[2]; NIH-III, mouse, in vivo, ip
  Approximate % suppression per °C of Kloss for i.p. SN30000: ~86%
[2]; NIH-III, mouse, in vivo, model clearance
  clearance: 189 mL/min/kg
[2]; i.p. dosing compartment, SN30000 value fixed
  Absorption rate constant Ka: 60
[2]; loss from peritoneal compartment
  Kloss for i.p. SN30000: 67.48 L/h
NIH-III mice; i.p. MTD dose (186 mg/kg)
  Drop in rectal temperature at nadir, below controls: ~8 °C
  Time of temperature nadir: approximately 30 min
NIH-III mice; i.p. SN30000 186 mg/kg, TPZ 31.7 mg/kg, M14 135 mg/kg
  Initial rate of temperature loss (rectum): 0.52 °C/min
[3]; [19]
  Bias: -0.12%
  Measured conc: 0.50 µM
[3]; [20]
  Bias: -0.22%
  Measured conc: 4.99 µM
[3]; [21]
  Bias: 7.93%
  Measured conc: 53.97 µM
[3]; plasma, 1 month at -80°C, nominal SN30000 0.5, M14 0.25, M13 0.1 µM
  Measured conc: 0.48 µM
[3]; [22]
  Bias: 1.44%
  Measured conc: 4.92 µM
[3]; [23]
  Bias: 2.04%
  Measured conc: 53.90 µM
[3]; [24]
  Bias: -0.80%
  Measured conc: 0.50 µM
[3]; [25]
  Bias: -7.17%
  Measured conc: 4.64 µM
[3]; [26]
  Bias: 5.03%
  Measured conc: 52.5 µM
[3]; [27]
  Bias: -7.83%
  Measured conc: 0.46 µM
[3]; [28]
  Bias: -7.91%
  Measured conc: 4.60 µM
[3]; [29]
  Bias: -7.21%
  Measured conc: 46.39 µM
[3]; [30]
  Bias: -3.33%
  Measured conc: 0.48 µM
[3]; [31]
  Bias: -7.29%
  Measured conc: 4.64 µM
[3]; [32]
  Bias: -4.85%
  Measured conc: 47.57 µM
[3]; [33]
  Bias: 1.31%
  Measured conc: 0.51 µM
[3]; [34]
  Bias: 0.11%
  Measured conc: 5.01 µM
[3]; [35]
  Bias: 2.32%
  Measured conc: 51.16 µM
[3]; [36]
  Bias: -14.4%
  Measured conc: 0.43 µM
[3]; [37]
  Bias: -12.3%
  Measured conc: 4.38 µM
[3]; [38]
  Bias: -14.9%
  Measured conc: 42.53 µM
[3]; [39]
  Bias: -10.09%
  Measured conc: 0.45 µM
[3]; [40]
  Bias: -12.57%
  Measured conc: 4.37 µM
[3]; [41]
  Bias: -8.13%
  Measured conc: 45.94 µM
[3]; [42]
  Bias: 0.56%
  Measured conc: 0.50 µM
[3]; [43]
  Bias: -2.87%
  Measured conc: 4.86 µM
[3]; [44]
  Bias: 6.72%
  Measured conc: 53.36 µM
